Reference: patent US6369101B1, “Therapeutic method to treat herpes virus infection” (Regents of the University of Minnesota, priority 1999, dated 2002)
Converted amounts (≈) assume the structure as drawn.

Experiments:
HSV-2 strain MS = assay: CPE inhibition assay, HSV-2 MS in human foreskin fibroblast cells; type: cell-based, herpes simplex virus type 2; conditions: for EC50 HSV-2 MS: CPE inhibition in HFF cells; on Qualitative CPE at 2.0 ml dose HSV-2 MS: key: +++ = Complete cytopathic effect; ++ = Moderate cytopathic effect; + = Minimum cytopathic effect; − = No cytopathic effect
[1] = system: Primary human foreskin fibroblast cells (HFF); assay: Cell proliferation assay (cytotoxicity) in HFF cells; type: cell-based; conditions: for CC50: Human foreskin fibroblast cells, reduces growth of uninfected cells by 50%
HSV-1 strain F = assay: CPE inhibition, HSV-1 strain F in HEp-2 cells; on Cytopathic Effect (CPE) Inhibition HSV-1 Strain F: key: +++ = Complete cytopathic effect; ++ = Moderate cytopathic effect; + = Minimum cytopathic effect; − = No cytopathic effect; type: cell-based, herpes simplex virus type 1; conditions: for Cytopathic Effect (CPE) Inhibition HSV-1 Strain F: conc. per compound (ng/ml)
Human Cytomegalovirus = assay: CPE inhibition in stationary cells (visual), HCMV in HFF cells; type: cell-based; conditions: test compounds in DMSO
HFF cells = assay: CC50 in HFF cells (Table 3); type: cell-based, human; conditions: HFF cells
Protocol: The cells were observed daily for any change in morphology. The rounding and lysis of cells were observed if the compound has cytotoxic effect. At the end of this time, the media-drug solution was removed and the cells washed. […] The cells-media mixture was then pipetted up and down several times to resuspend the cells and 0.2 ml of the cell suspension was added to 9.8 ml of trypan blue and cells were counted using hemocytometer. Each sample was counted three times with three replicate wells per sample.

MEF cells = assay: CC50 in MEF cells (Table 3); type: cell-based; conditions: Mouse Cytomegalovirus section of Table 3
HSV-2 (MS Strain) [2] = assay: Cutaneous HSV-2 infection in rats, topical ointment; type: in vivo, rat; conditions: topical 2% ointment twice daily for 3 days
HSV-1 (E377) = assay: Cutaneous HSV-1 infection in guinea pigs, topical ointment; type: in vivo, guinea pig; conditions: topical ointment (2% betulin, 2% allobetulin, 5% Acyclovir) twice daily for 3 days
HSV-2 (MS strain) [3] = assay: Vaginal HSV-2 (MS) infection in guinea pigs, topical ointment; type: in vivo, guinea pig
Protocol: Female Hartley outbred guinea pigs 26 days old and weighing approximately 350 to 400 grams each were obtained from Charles River Breeding Labs, Wilmington, Mass. The animals were housed singly and given feed and water ad lib.
2% Betulin and allobetulin ointment were prepared aseptically in polyethylene glycol (PEG) as ointment base and stored at room temperature until used.
Female guinea pigs weighing 200 g were inoculated intravaginally with HSV-2 (MS strain). One hour before viral inoculation the animals were swabbed using Dacron-polyester tipped applicator moistened in sterile saline to remove vaginal secretions. The animals were then infected with one drop of HSV-2 suspension containing 1×10^4 pfu, and the surface of the vaginal mucosa was slightly scarified with a sterile Greer Derma Pick® Skin Testing System (Greer Labs, Lenoir, N.C.).
The treatment of infected guinea pigs was started 18 hours after infection and continued twice daily for 3 days. […] Each experiment included uninfected control, infected and placebo controls. […] The swabs were stored at −80° C. until analyzed. The virus content of the specimens was measured by plaque assay in HEp-2 cells and the mean virus titer was calculated. […] The variable assessed was typical HSV vesicle formation, size, number and whether confluent, induration at the site of infection and scab formation.

Epstein-Barr Virus = assay: VCA expression in EBV-infected Daudi cells; conditions: Epstein-Barr Virus, Daudi cells, VCA; test compounds in DMSO
Text: Raji is a Burkitt's lymphoma cell line containing 60 EBV genome/cell, and was the primary cell used for screening antiviral activity against EBV early antigen (EA) expression. […] It spontaneously expresses EBV EA in 0.25-0.5% of the cells. It was used in follow-up studies to confirm activity. These cell lines respond to superinfection by EBV by expressing EA-diffuse component EA (D), EA restricted component EA (R), and viral capsid antigen (VCA). […] The cultures were fed twice weekly and the cell concentration was adjusted to 3×10^5/ml. The cells were kept at 37° C. in humidified atmosphere with 5% CO2.
Cells were infected with the P3HR-1 strain of HBV and the test compound was added after adsorption (45 minutes at 37° C.) and washing of the cell cultures. The cultures were incubated for two days in complete medium to allow viral gene expression. Following the 48 hours of incubation, the numbers of cells of each sample was counted and smears were made. Monoclonal antibodies to the different EA components and VCA were then added to the cells and then incubated and washed. This is followed by a fluorescein conjugated rabbit anti-mouse IgG antibody, and the number of fluorescence cells in the smear were counted. The total number of cells in the cultures positive for EA or VCA were then calculated and compared.

[4] = HFF cells, solution conc. per compound (ng/ml) (Acyclovir 250)
[5] = Varicella-Zoster Virus section of Table 3

With `C=C(C)[C@@H]1CC[C@]2(CO)CC[C@]3(C)[C@H](CC[C@@H]4[C@@]5(C)CC[C@H](O)C(C)(C)[C@@H]5CC[C@]43C)[C@@H]12` [Betulin, lup-20(29)-ene-3β, 28-diol, reference compound] the “EC50 HSV-2 MS” value (HSV-2 strain MS) was about 0.125 µg/mL (≈ 0.282 µM), the “anti HSV-2 activity (in words)” value (HSV-2 strain MS; HFF cells, HSV-2) was “significant anti HSV-2 activity” and the “Qualitative CPE at 2.0 ml dose HSV-2 MS” value (HSV-2 strain MS; [4]) was “+”. The “cytotoxicity (in words)” value ([1]; HFF cells) was “more toxic”, the “Qualitative Cytotoxic Effect at 2.0 ml dose” value ([1]; HFF cells, solution conc. per compound (ng/ml) (Acyclovir 250), 2.0 ml dose) was “−” and the CC50 [1] was 250 ng/mL (≈ 0.565 µM). The “Cytopathic Effect (CPE) Inhibition HSV-1 Strain F” value (HSV-1 strain F) was “+”, the “anti HSV-1 activity (in words)” value (HSV-1 strain F; qualitative CPE inhibition assay) was “significant anti HSV-1 activity” and the EC50 (Human Cytomegalovirus) was 0.0029 µg/mL (≈ 0.00655 µM). The CC50 (HFF cells; Human Cytomegalovirus section of Table 3) was 0.0142 µg/mL (≈ 0.0321 µM), the CC50 (HFF cells; [5]) was 0.0141 µg/mL (≈ 0.0318 µM) and the CC50 (MEF cells) was 0.08 µg/mL (≈ 0.181 µM). The “effect on cutaneous HSV-2 infection (in words)” value (HSV-2 (MS Strain) [2]) was “significant effect”, the “effect on cutaneous HSV-1 infection (in words)” value (HSV-1 (E377)) was “diminished the development of the clinical infectious process” and the “effect on vaginal HSV-2 infection (in words)” value (HSV-2 (MS strain) [3]; 2% ointment twice daily for 3 days beginning 18 hours after infection) was “Significant effect”. For the same compound, the “typical lesions and virus content in the infected vaginal area” value (HSV-2 (MS strain) [3]; by 6 to 8 days, 2% ointment twice daily for 3 days) was “decreased significantly”.

In the case of “acycloguanosine [Acyclovir, reference compound]”, the “EC50 HSV-2 MS” value (HSV-2 strain MS) is reported as 6 µg/mL, the “Qualitative CPE at 2.0 ml dose HSV-2 MS” value (HSV-2 strain MS; HFF cells, Conc. 12500 ng/ml) is reported as “+” and the “Qualitative CPE at 2.0 ml dose HSV-2 MS” value (HSV-2 strain MS; [4]) is reported as “+++”. The CC50 ([1]; listed as Acyclovir ®) was over 12500 ng/mL, the CC50 ([1]; listed as Acyclovir®) was > 12,500 ng/ml and the “Cytopathic Effect (CPE) Inhibition HSV-1 Strain F” value (HSV-1 strain F) was “+++”. For the same compound, the CC50 (HFF cells; [5]) was over 100 µg/mL, the “effect on cutaneous HSV-1 infection (in words)” value (HSV-1 (E377)) was “diminished the development of the clinical infectious process” and the EC50 (Epstein-Barr Virus) was 1.4 µg/mL.
